Source: PubChem BioAssay (NCI)
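Exposure lasted 48 hours, with cells grown in 96-well plates and compounds tested at five concentrations. GI50 marks 50% less growth. The concentration for full growth arrest is given as TGI.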

Key:
Assay in all cases: growth of human tumour cells (NCI), 48 h
786-0 renal = tested on: 786-0 renal
A498 renal = tested on: A498 renal
A549 NSCLC = tested on: A549 NSCLC
ACHN renal = tested on: ACHN renal
BT-549 breast = tested on: BT-549 breast
CAKI-1 renal = tested on: CAKI-1 renal
CCRF-CEM leukemia = tested on: CCRF-CEM leukemia
COLO 205 colon = tested on: COLO 205 colon
DU-145 prostate = tested on: DU-145 prostate
EKVX NSCLC = tested on: EKVX NSCLC
HCT-116 colon = tested on: HCT-116 colon
HCT-15 colon = tested on: HCT-15 colon
HOP-62 NSCLC = tested on: HOP-62 NSCLC
HOP-92 NSCLC = tested on: HOP-92 NSCLC
HS 578T breast = tested on: HS 578T breast
HT29 colon = tested on: HT29 colon
IGROV1 ovarian = tested on: IGROV1 ovarian
KM12 colon = tested on: KM12 colon
LOX IMVI melanoma = tested on: LOX IMVI melanoma
M14 melanoma = tested on: M14 melanoma
MALME-3M melanoma = tested on: MALME-3M melanoma
MCF7 breast = tested on: MCF7 breast
MDA-MB-231 breast = tested on: MDA-MB-231 breast
MDA-MB-435 = tested on: MDA-MB-435
MOLT-4 leukemia = tested on: MOLT-4 leukemia
NCI-H226 lung = tested on: NCI-H226 lung
NCI-H23 lung = tested on: NCI-H23 lung
NCI-H460 lung = tested on: NCI-H460 lung
NCI-H522 lung = tested on: NCI-H522 lung
OVCAR-3 ovarian = tested on: OVCAR-3 ovarian
OVCAR-4 ovarian = tested on: OVCAR-4 ovarian
OVCAR-5 ovarian = tested on: OVCAR-5 ovarian
OVCAR-8 ovarian = tested on: OVCAR-8 ovarian
PC-3 prostate = tested on: PC-3 prostate
RPMI-8226 leukemia = tested on: RPMI-8226 leukemia
RXF 393 renal = tested on: RXF 393 renal
SF-268 CNS = tested on: SF-268 CNS
SF-295 CNS = tested on: SF-295 CNS
SF-539 CNS = tested on: SF-539 CNS
SK-MEL-28 melanoma = tested on: SK-MEL-28 melanoma
SK-MEL-5 melanoma = tested on: SK-MEL-5 melanoma
SN12C renal = tested on: SN12C renal
SNB-19 CNS = tested on: SNB-19 CNS
SNB-75 CNS = tested on: SNB-75 CNS
SW-620 colon = tested on: SW-620 colon
T-47D breast = tested on: T-47D breast
TK-10 renal = tested on: TK-10 renal
U251 CNS = tested on: U251 CNS
UACC-257 melanoma = tested on: UACC-257 melanoma
UACC-62 melanoma = tested on: UACC-62 melanoma
UO-31 renal = tested on: UO-31 renal

COC(=O)C1=C2CO[C@@H]3C[C@H]4C(C)(C)CCC[C@]4(C)C(=CC1)[C@]23C
GI50 (786-0 renal): 41.5 µM
TGI (786-0 renal): > 100 µM
GI50 (A498 renal): 67.5 µM
TGI (A498 renal): > 100 µM
GI50 (A549 NSCLC): 36.8 µM
TGI (A549 NSCLC): > 100 µM
GI50 (ACHN renal): 72 µM
TGI (ACHN renal): > 100 µM
GI50 (BT-549 breast): 48.9 µM
TGI (BT-549 breast): > 100 µM
GI50 (CAKI-1 renal): 19.5 µM
TGI (CAKI-1 renal): 52.1 µM
GI50 (CCRF-CEM leukemia): 21.6 µM
TGI (CCRF-CEM leukemia): 46.4 µM
GI50 (COLO 205 colon): 28.2 µM
TGI (COLO 205 colon): 71 µM
GI50 (DU-145 prostate): 44 µM
TGI (DU-145 prostate): > 100 µM
GI50 (EKVX NSCLC): 45.5 µM
TGI (EKVX NSCLC): > 100 µM
GI50 (HCT-116 colon): 22.5 µM
TGI (HCT-116 colon): 51.3 µM
GI50 (HCT-15 colon): 41.7 µM
TGI (HCT-15 colon): > 100 µM
GI50 (HOP-62 NSCLC): 45.1 µM
TGI (HOP-62 NSCLC): > 100 µM
GI50 (HOP-92 NSCLC): 8.2 µM
TGI (HOP-92 NSCLC): 44.7 µM
GI50 (HS 578T breast): 47 µM
TGI (HS 578T breast): > 100 µM
GI50 (HT29 colon): 48.4 µM
TGI (HT29 colon): > 100 µM
GI50 (IGROV1 ovarian): 60.7 µM
TGI (IGROV1 ovarian): > 100 µM
GI50 (KM12 colon): 21.4 µM
TGI (KM12 colon): 74.1 µM
GI50 (LOX IMVI melanoma): 36.4 µM
TGI (LOX IMVI melanoma): > 100 µM
GI50 (M14 melanoma): 32.6 µM
TGI (M14 melanoma): > 100 µM
GI50 (MALME-3M melanoma): 12.1 µM
TGI (MALME-3M melanoma): 68.5 µM
GI50 (MCF7 breast): 44 µM
TGI (MCF7 breast): > 100 µM
GI50 (MDA-MB-231 breast): 83 µM
TGI (MDA-MB-231 breast): > 100 µM
GI50 (MDA-MB-435): 16.7 µM
TGI (MDA-MB-435): 37.5 µM
GI50 (MOLT-4 leukemia): 5.48 µM
TGI (MOLT-4 leukemia): 30.5 µM
GI50 (NCI-H226 lung): 56.5 µM
TGI (NCI-H226 lung): > 100 µM
GI50 (NCI-H23 lung): 29.8 µM
TGI (NCI-H23 lung): > 100 µM
GI50 (NCI-H460 lung): 51.1 µM
TGI (NCI-H460 lung): > 100 µM
GI50 (NCI-H522 lung): 29.4 µM
TGI (NCI-H522 lung): > 100 µM
GI50 (OVCAR-3 ovarian): 11.1 µM
TGI (OVCAR-3 ovarian): 32.2 µM
GI50 (OVCAR-4 ovarian): 62.1 µM
TGI (OVCAR-4 ovarian): > 100 µM
GI50 (OVCAR-5 ovarian): 21.8 µM
TGI (OVCAR-5 ovarian): > 100 µM
GI50 (OVCAR-8 ovarian): 40.2 µM
TGI (OVCAR-8 ovarian): > 100 µM
GI50 (PC-3 prostate): 0.229 µM
TGI (PC-3 prostate): 0.692 µM
GI50 (RPMI-8226 leukemia): 13.6 µM
TGI (RPMI-8226 leukemia): 29.9 µM
GI50 (RXF 393 renal): 50.9 µM
TGI (RXF 393 renal): > 100 µM
GI50 (SF-268 CNS): 98.3 µM
TGI (SF-268 CNS): > 100 µM
GI50 (SF-295 CNS): 14.9 µM
TGI (SF-295 CNS): 37.6 µM
GI50 (SF-539 CNS): 72.7 µM
TGI (SF-539 CNS): > 100 µM
GI50 (SK-MEL-28 melanoma): 45.3 µM
TGI (SK-MEL-28 melanoma): > 100 µM
GI50 (SK-MEL-5 melanoma): 20.8 µM
TGI (SK-MEL-5 melanoma): 43.2 µM
GI50 (SN12C renal): 35.1 µM
TGI (SN12C renal): > 100 µM
GI50 (SNB-19 CNS): 46.8 µM
TGI (SNB-19 CNS): > 100 µM
GI50 (SNB-75 CNS): 20.4 µM
TGI (SNB-75 CNS): 50.9 µM
GI50 (SW-620 colon): 39.5 µM
TGI (SW-620 colon): > 100 µM
GI50 (T-47D breast): 41.5 µM
TGI (T-47D breast): > 100 µM
GI50 (TK-10 renal): 42.8 µM
TGI (TK-10 renal): > 100 µM
GI50 (U251 CNS): 43.4 µM
TGI (U251 CNS): > 100 µM
GI50 (UACC-257 melanoma): 35.7 µM
TGI (UACC-257 melanoma): > 100 µM
GI50 (UACC-62 melanoma): 41.9 µM
TGI (UACC-62 melanoma): > 100 µM
GI50 (UO-31 renal): 60.7 µM
TGI (UO-31 renal): > 100 µM
